Source: patent publication US9156826B2, “Asymmetrical reversible neuromuscular blocking agents of ultra-short, short, or intermediate duration” (Cornell University, priority 2012, dated 2015)
“Also recorded” adds a separate entry of the source.

Assays:
[1] = system: twitch responses of the extensor digitorum of the foot (peroneal nerve stimulation); experiment: Neuromuscular blocking potency and duration: twitch blockade dose-response in anesthetized rhesus monkeys; format: in vivo, rhesus monkey (Macaca mulatta)
Description: (§1) Selected NMBA compounds were tested as described in PCT/US2010/000796 application by an inventor herein, published as WO2010/107488, which is incorporated by reference, see pages 66-78. Dose-response curves for twitch blockade by test compounds were generated as described. […] Successive doses were separated by at least three estimated half lives beyond complete recovery of the previous dose to TOF of 110-120%, which is normal for these monkeys. Only the first one or two doses yielding 5 to 99% blockade were included from any single experiment for computation of dose-response data. Comparative studies of spontaneous recovery versus antagonism/reversal were done at least 3 estimated half-lives following dose-response studies. ED50 and ED95 were computed from the regression of log dose vs. the logit of percentage blockade of twitch.
Experiments were approved by the Institutional Animal Care and Use Committee of Weill Medical College of Cornell University (New York, N.Y.) and of Albany Medical College (Albany, N.Y.), where the studies were conducted. A colony of 10 adult male monkeys (Macaca mulatta) weighing 8-18 kg was studied at ˜6 week intervals. Animals were housed and cared for in accordance with the Guide for Care and Use of Laboratory Animals (National Research Council, Washington, D.C.). They were fed a standard Old World monkey diet, enriched with fruits and vegetables, and other dietary novelties and were followed throughout the study to verify normal health by physical examination, body weight, and clinical laboratory studies (Complete Blood Count, Blood Urea Nitrogen and creatinine, and liver function tests).
(§2) On the day of each study, monkeys received ketamine (7-10 mg/kg i.m.) followed by tracheal intubation under topical anesthesia with 4% lidocaine. Ventilation was controlled at 10 mL/kg and 20 breaths/min with isoflurane (1.0-2.0%) and N2O/O2 (2:1 mixture). Ringers lactate was administered at ˜10 ml kg^−1 h^−1. Arterial pressure was monitored from a femoral, superficial tibial, or radial (22 gauge) cannula. Heart rate was measured by tachograph from the arterial pulse wave. Core temperature was kept at 36.5-38.0° C. by warming blankets. Electrocardiogram and pulse oximetry were monitored continuously.
(§3) Needle electrodes (25 gauge) transmitting square-wave pulses of 0.2 msec duration at supramaximal voltage which were generated by a Grass S-88 stimulator (Grass Instruments, Quincy, Mass.) were placed at the peroneal nerve at the knee to elicit twitch responses of the extensor digitorum of the foot at 0.15 Hz. A small slip (10-20%) of the tendon was dissected free under sterile technique and tied to a Grass FT 10 force transducer (Grass Instruments, Quincy, Mass.) at a baseline tension of 50 gm. Train-of four stimulation (TOF, 2 Hz for 2 sec) was interposed at appropriate points, especially 1-2 min prior to NMBA dosing and following recovery of twitch to 95% of baseline, where TOF was subsequently evaluated every 1-2 min.
(§4) Recordings of circulatory and neuromuscular data were made on a Grass 7B polygraph (Grass Instruments). A baseline period of 15-20 min was allowed for stabilization of recordings prior to dosing.^2
Dose-response curves for twitch blockade by gantacurium, CW 002, CW 011, cisatracurium, CW002-Cys, NB 938-69, NB 1064-81, NB 802-17 (CW 001), NB 832-65, and NB 1163-79, structures of which are all shown above, were generated as follows. […] Successive doses were separated by at least three estimated half lives beyond complete recovery of the previous dose to TOF of 110-120%, which is normal for these monkeys. Only the first one or two doses yielding 5 to 99% blockade were included from any single experiment for computation of dose-response data.
ED 50 and ED 95 were computed from the regression of log dose vs. the logit of percentage blockade of twitch.

[2] = system: blood pressure and heart rate; experiment: Circulatory effects (arterial pressure, heart rate) during neuromuscular blockade in rhesus monkeys; format: in vivo, rhesus monkey (Macaca mulatta); conditions: rhesus monkey
Description: Thus, the undesired side effect of tachycardia is not induced by a compound of the invention at a dose effective to induce NMB.
as §2, §4

[3] = system: twitch responses of the extensor digitorum of the foot (peroneal nerve stimulation); experiment: Spontaneous recovery versus reversal of neuromuscular blockade by cysteine in monkeys; format: in vivo, rhesus monkey (Macaca mulatta); conditions: for Total Duration (Spontaneous Recovery): injection to 95% twitch height
Description: as §1, §2, §3
Comparative studies of spontaneous recovery versus antagonism/reversal were done at least 3 estimated half-lives following dose-response studies.

[4] = system: mean arterial pressure; experiment: Rise in mean arterial pressure after cysteine dosing; conditions: 100 mg/kg
[5] = Properties of cysteine solutions (solubility, natural pH); format: physicochemical; conditions: cysteine in its base form
Description: To accomplish the reversal of a neuromuscular blockade generated by one of these agents, cysteine is administered by intravenous injection. However, the natural pH of cysteine hydrochloride solutions at concentrations of 50 mg/ml or more in aqueous solution (e.g., 0.9% saline) is very low, ranging from about pH 0.8 to about pH 1.0. Moreover, cysteine is not soluble at concentrations greater than 50 mg/ml in its base form, but higher concentrations of cysteine are more conveniently administered for reversal of neuromuscular blockades. For example, bolus administration of volumes greater than 50 ml over a time period of 5-10 sec is generally not convenient in an operating room. Therefore, to be administered to patients, cysteine solutions have been developed that have higher concentrations and higher pH values as described herein.

[6] = Table 3, dose 0.064 ± 0.010 (gantacurium) or 0.060 ± 0.012 mg/kg (CW1759-50)

SMILES: COc1ccc(C[C@@H]2c3cc(OC)c(OC)cc3CC[N@@+]2(C)CCCOC(=O)/C=C\C(=O)OCCC[N+]2(Cc3ccc(OC)c(OC)c3)CCOCC2)cc1 [Compound 1726-01]
- duration of neuromuscular blockade (spontaneous recovery, FIG. 2) ([1]; 0.06 mg/kg dose, rhesus monkey): about six
- ED95 ([1]; Macaca mulatta, Table 1, calculated dose for 95% block of twitch, monkeys, read-out: ED 95): 0.05 mg/kg
- Duration (min ± SD) ([1]; Table 1, at the actual dose administered, injection to recovery of twitch to 95% of control): 7.6 ± 2.4 min
- Blockade (%) [1, 6]: 99.3 ± 0.2%
- Onset [1, 6]: 94.0 ± 8.7 s
- Total Duration [1, 6]: 8.2 ± 1.5 min
- potency compared with gantacurium (% blockade, time to onset, total duration of effect) ([1]; Table 3 comparison): comparable to gantacurium in potency
- ED95 (statistical analysis of dose-response study, FIG. 1) ([1]; rhesus monkeys): 0.054 ± 0.0022 mg/kg
- effect on blood pressure ([2]; 0.06 mg/kg dose, FIG. 2): no apparent effect on blood pressure
- effect on heart rate / tachycardia ([2]; 0.06 mg/kg, dose effective to induce NMB): no apparent effect on heart rate
- spontaneous reversal of blockade time (FIG. 4) ([3]; 100% block): more than 10 minutes
- cysteine-induced reversal time (FIG. 4) ([3]; 100% block, 30 mg/kg L-cysteine hydrochloride): ≤ 2 min
- 5-95% Interval with L-Cysteine ([3]; L-cysteine 30 mg/kg at +1 min following bolus 0.2 mg/kg (4x ED95), Point A): 1.9 ± 0.2
- 5-95% Interval with L-Cysteine ([3]; L-cysteine 30 mg/kg at +1 min following discontinuation of infusion (30-120 mins), Point B): 2.1 ± 0.2
- Reversibility (Cysteine) ([3]; Table 1, reversal of the blockade by cysteine): Yes
- 5-95% Interval (Spontaneous Recovery) ([3]; bolus 0.2 mg/kg (4x ED95), Point A): 6.2 ± 0.2
- Total Duration (Spontaneous Recovery) ([3]; bolus 0.2 mg/kg (4x ED95)): 11.9 ± 0.3 min
- 5-95% Interval (Spontaneous Recovery) ([3]; bolus 0.05-0.06 mg/kg (ED99)): 5.2 ± 0.2
- Total Duration (Spontaneous Recovery) ([3]; bolus 0.05-0.06 mg/kg (ED99)): 7.3 ± 0.3 min
- dependence of recovery (5-95% twitch recovery interval) on dosage or duration of infusion (FIG. 5) ([3]; bolus or infusion, spontaneous or L-cysteine induced recovery, listed as 1759-50): not significantly effected by the previous duration of infusion; also recorded: unaffected by dosage or duration of infusion
- 5-95% Interval (Spontaneous Recovery) ([3]; continuous infusions, 30-120 mins, Point B): 5.2 ± 0.3
- spontaneous reversal time (FIG. 3) ([3]; dose of 4x the ED95 dose): about 11 minutes
- time to termination of blockade following L-cysteine administration (FIG. 3) ([3]; dose of 4x the ED95 dose, 30 mg/kg L-cysteine hydrochloride): about two

SMILES: N[C@H](CS)C(=O)O [D-cysteine]
- rise in mean arterial pressure compared with L-cysteine [4]: less of a rise in mean arterial pressure than L-cysteine

SMILES: N[C@@H](CS)C(=O)O [cysteine]
- solubility [5]: ≤ 50 mg/mL
